{
  "source": "patent US8846684B2",
  "about": "(priority 2011, dated 2014)",
  "key": {"NSV": {"test_system": "NSV", "assay_type": "cell-based, neuroadapted Sindbis virus"}, "WEEV": {"test_system": "WEEV", "assay_type": "cell-based, Western equine encephalitis virus"}, "WEEV replicon": {"test_system": "WEEV replicon", "test": "microbe, parasite or virus in culture", "assay_type": "cell-based, Western equine encephalitis virus"}, "[1]": {"test_system": "vaccine strain of Venezuelan equine encephalitis virus (VEEV)", "conditions": "mouse, in vivo; cited from earlier work"}, "wild-type VEEV": {"test_system": "wild-type VEEV", "conditions": "in vivo; cited from earlier work"}, "[2]": {"conditions": "Western equine encephalitis virus, read-out: Activity IC50 (μM)"}, "[3]": {"conditions": "Western equine encephalitis virus; read-out: Activity (% control LUC) 2 μM"}, "[4]": {"conditions": "Western equine encephalitis virus; read-out: Activity (% control LUC) 10 μM"}, "[5]": {"conditions": "Western equine encephalitis virus; read-out: Activity (% control LUC) 50 μM"}, "[6]": {"conditions": "Western equine encephalitis virus; read-out: 50 μM (% control) Luc"}, "[7]": {"conditions": "Western equine encephalitis virus"}},
  "note": "pIC50: −log10 of the molar value. Like-named read-outs stand apart in the source and are kept apart here.",
  "data": [
    {"compound": "O=C(NCc1ccccc1)C1CCN(C(=O)c2cc3ccccc3n2Cc2ccc(Cl)cc2)CC1", "note": "[CCG 102516, N-benzyl-1-(1-(4-chlorobenzyl)-1H-indole-2-carbonyl)piperidine-4-carboxamide]", "values": [
      {"measurement": "NSV titers (virion production, plaque assay)", "setting": "NSV", "value": "significantly reduced"},
      {"measurement": "WEEV titers (virion production, plaque assay)", "setting": "WEEV", "value": "significantly reduced"},
      {"measurement": "IC50", "setting": "WEEV replicon; [2]", "value": 18.6, "unit": "µM"},
      {"measurement": "activity at 2 µM", "setting": "WEEV replicon; [3]", "value": 88, "unit": "%"},
      {"measurement": "activity at 10 µM", "setting": "WEEV replicon; [4]", "value": 76.9, "unit": "%"},
      {"measurement": "activity at 50 µM", "setting": "WEEV replicon; [5]", "value": 59.7, "unit": "%"}
    ]},
    {"compound": "(−)-carbodine", "values": [
      {"measurement": "disease outcome", "setting": "[1]", "value": "improved outcome"},
      {"measurement": "lowering of peak CNS viral titers", "setting": "[1]", "value": "half-log"},
      {"measurement": "benefit following wild-type VEEV challenge", "setting": "wild-type VEEV", "value": "no benefit"}
    ]},
    {"compound": "CC(=O)n1c(C(=O)N2CCC(C(=O)N(C)Cc3ccccc3)CC2)cc2ccccc21", "note": "[CCG 206333, 1-(1-acetyl-1H-indole-2-carbonyl)-N-benzyl-N-methylpiperidine-4-carboxamide]", "values": [
      {"measurement": "activity at 50 µM", "setting": "WEEV replicon; [6]", "value": 58.5, "unit": "%"}
    ]},
    {"compound": "O=C(NC1Cc2ccccc2C1)C1CCN(C(=O)c2cc3ccccc3n2Cc2ccc(Cl)cc2)CC1", "note": "[CCG 205471, 1-(1-(4-chlorobenzyl)-1H-indole-2-carbonyl)-N-(2,3-dihydro-1H-inden-2-yl)piperidine-4-carboxamide]", "values": [
      {"measurement": "activity at 50 µM", "setting": "WEEV replicon; [6]", "value": 60.9, "unit": "%"}
    ]},
    {"compound": "O=C(NCCc1ccncc1)C1CCN(C(=O)c2cc3ccccc3n2Cc2ccc(Cl)cc2)CC1", "note": "[CCG 205432, 1-(1-(4-chlorobenzyl)-1H-indole-2-carbonyl)-N-(2-(pyridin-4-yl)ethyl)piperidine-4-carboxamide]", "values": [
      {"measurement": "pIC50", "setting": "WEEV replicon; [7]", "value": 6.28},
      {"measurement": "activity at 50 µM", "setting": "WEEV replicon; [6]", "value": 3.75, "unit": "%"}
    ]},
    {"compound": "CN1CCN(C(=O)C2CCN(C(=O)c3cc4ccccc4n3Cc3ccc(Cl)cc3)CC2)CC1", "note": "[CCG 204023, (1-(4-chlorobenzyl)-1H-indol-2-yl)(4-(4-methylpiperazine-1-carbonyl)piperidin-1-yl)methanone]", "values": [
      {"measurement": "IC50", "setting": "WEEV replicon; [2]", "value": 21.4, "unit": "µM"},
      {"measurement": "activity at 2 µM", "setting": "WEEV replicon; [3]", "value": 99, "unit": "%"},
      {"measurement": "activity at 10 µM", "setting": "WEEV replicon; [4]", "value": 67.4, "unit": "%"},
      {"measurement": "activity at 50 µM", "setting": "WEEV replicon; [5]", "value": 6, "unit": "%"}
    ]},
    {"compound": "O=C(c1cc2ccccc2n1Cc1ccc(F)cc1)N1CCC(C(=O)N2CCCCC2)CC1", "note": "[CCG 203945, (1-(4-fluorobenzyl)-1H-indol-2-yl)(4-(piperidine-1-carbonyl)piperidin-1-yl)methanone]", "values": [
      {"measurement": "IC50", "setting": "WEEV replicon; [2]", "value": 20, "unit": "µM"},
      {"measurement": "activity at 2 µM", "setting": "WEEV replicon; [3]", "value": 85, "unit": "%"},
      {"measurement": "activity at 10 µM", "setting": "WEEV replicon; [4]", "value": 64.4, "unit": "%"},
      {"measurement": "activity at 50 µM", "setting": "WEEV replicon; [5]", "value": 21.3, "unit": "%"}
    ]},
    {"compound": "CC(NC(=O)C1CCN(C(=O)c2cc3ccccc3n2Cc2ccc(Cl)cc2)CC1)c1ccncc1", "note": "(centres unmarked) [CCG 206329, 1-(1-(4-chlorobenzyl)-1H-indole-2-carbonyl)-N-(1-(pyridin-4-yl)ethyl)piperidine-4-carboxamide]", "values": [
      {"measurement": "pIC50", "setting": "WEEV replicon; [7]", "value": 5.62},
      {"measurement": "activity at 50 µM", "setting": "WEEV replicon; [6]", "value": 12.7, "unit": "%"}
    ]},
    {"compound": "C[C@@H](NC(=O)C1CCN(C(=O)c2cc3ccccc3n2Cc2ccc(Cl)cc2)CC1)c1ccccc1", "note": "[CCG 203926, (R)-1-(1-(4-chlorobenzyl)-1H-indole-2-carbonyl)-N-(1-phenylethyl)piperidine-4-carboxamide]", "values": [
      {"measurement": "cytotoxicity", "setting": "BSR-T7/C3 clone", "value": "relatively low cytotoxicity"},
      {"measurement": "NSV titers (virion production, plaque assay)", "setting": "NSV", "value": "significantly reduced"},
      {"measurement": "WEEV titers (virion production, plaque assay)", "setting": "WEEV", "value": "significantly reduced"},
      {"measurement": "activity in the replicon inhibition assay (in words)", "setting": "WEEV replicon", "value": "active"},
      {"measurement": "activity at 2 µM", "setting": "WEEV replicon; Western equine encephalitis virus, read-out: Activity (% control LUC) 2 μM", "value": 100, "unit": "%"},
      {"measurement": "activity at 10 µM", "setting": "WEEV replicon; Western equine encephalitis virus, read-out: Activity (% control LUC) 10 μM", "value": 55, "unit": "%"},
      {"measurement": "activity at 50 µM", "setting": "WEEV replicon; Western equine encephalitis virus, read-out: Activity (% control LUC) 50 μM", "value": 17, "unit": "%"},
      {"measurement": "IC50", "setting": "WEEV replicon; [2]", "value": 8.7, "unit": "µM"}
    ]},
    {"compound": "CN(Cc1ccccc1)C(=O)C1CCN(C(=O)c2cc3ccccc3[nH]2)CC1", "note": "[CCG 205400, N-benzyl-1-(1H-indole-2-carbonyl)-N-methylpiperidine-4-carboxamide]", "values": [
      {"measurement": "pIC50", "setting": "WEEV replicon; [7]", "value": 4.56},
      {"measurement": "activity at 50 µM", "setting": "WEEV replicon; [6]", "value": 29.1, "unit": "%"}
    ]},
    {"compound": "O=C(NCc1cccnc1)C1CCN(C(=O)c2cc3ccccc3n2Cc2ccc(Cl)cc2)CC1", "note": "[CCG 205422, 1-(1-(4-chlorobenzyl)-1H-indole-2-carbonyl)-N-(pyridin-3-ylmethyl)piperidine-4-carboxamide]", "values": [
      {"measurement": "pIC50", "setting": "WEEV replicon; [7]", "value": 4.94},
      {"measurement": "activity at 50 µM", "setting": "WEEV replicon; [6]", "value": 7.05, "unit": "%"}
    ]},
    {"compound": "C[C@@H](NCC1CCN(C(=O)c2cc3ccccc3n2Cc2ccc(F)cc2)CC1)c1ccccc1", "note": "[CCG 206499, (R)-(1-(4-fluorobenzyl)-1H-indol-2-yl)(4-(((1-phenylethyl)amino)methyl)piperidin-1-yl)methanone]", "values": [
      {"measurement": "activity at 50 µM", "setting": "WEEV replicon; [6]", "value": 0, "unit": "%"}
    ]},
    {"compound": "CN(Cc1ccccc1)C(=O)C1CCN(C(=O)c2cc3ccccc3n2Cc2ccc([N+](=O)[O-])cc2)CC1", "note": "[CCG 205484, N-benzyl-N-methyl-1-(1-(4-nitrobenzyl)-1H-indole-2-carbonyl)piperidine-4-carboxamide]", "values": [
      {"measurement": "pIC50", "setting": "WEEV replicon; [7]", "value": 4.38},
      {"measurement": "activity at 50 µM", "setting": "WEEV replicon; [6]", "value": 54, "unit": "%"}
    ]},
    {"compound": "O=C(Nc1ccccc1)C1CCN(C(=O)c2cc3ccccc3n2Cc2ccc(Cl)cc2)CC1", "note": "[CCG 206334, 1-(1-(4-chlorobenzyl)-1H-indole-2-carbonyl)-N-phenylpiperidine-4-carboxamide]", "values": [
      {"measurement": "activity at 50 µM", "setting": "WEEV replicon; [6]", "value": 77.3, "unit": "%"}
    ]},
    {"compound": "O=C(c1cc2ccccc2n1Cc1ccc(Cl)cc1)N1CCC(C(=O)N2CCC(c3ccccc3)C2)CC1", "note": "(centres unmarked) [CCG 205474, (1-(4-chlorobenzyl)-1H-indol-2-yl)(4-(3-phenylpyrrolidine-1-carbonyl)piperidin-1-yl)methanone]", "values": [
      {"measurement": "activity at 50 µM", "setting": "WEEV replicon; [6]", "value": 57.1, "unit": "%"}
    ]},
    {"compound": "O=C(c1cc2ccccc2n1Cc1ccc(Cl)cc1)N1CCC(C(=O)N2CCCCC2)CC1", "note": "[CCG 203928, (1-(4-chlorobenzyl)-1H-indol-2-yl)(4-(piperidine-1-carbonyl)piperidin-1-yl)methanone]", "values": [
      {"measurement": "IC50", "setting": "WEEV replicon; [2]", "value": 8.1, "unit": "µM"},
      {"measurement": "activity at 2 µM", "setting": "WEEV replicon; [3]", "value": 95.1, "unit": "%"},
      {"measurement": "activity at 10 µM", "setting": "WEEV replicon; [4]", "value": 65.4, "unit": "%"},
      {"measurement": "activity at 50 µM", "setting": "WEEV replicon; [5]", "value": 3.4, "unit": "%"}
    ]}
  ]
}
